# Like-named read-outs stand apart in the source and are kept apart here.
# Assays:
# PMM/PGM [1] = target: T1, PMM/PGM (Pseudomonas aeruginosa, UniProt P26276, S108C); test: biochemical
# T1 construct: gene algC
# PMM/PGM [2] = target: T1, PMM/PGM; conditions: read-out: Apparent dissociation constant; 50 mM MOPS pH 7.4, 1 mM MgCl2, 310 K; unphosphorylated enzyme
# T1 sequence (P26276 whole entry S108C): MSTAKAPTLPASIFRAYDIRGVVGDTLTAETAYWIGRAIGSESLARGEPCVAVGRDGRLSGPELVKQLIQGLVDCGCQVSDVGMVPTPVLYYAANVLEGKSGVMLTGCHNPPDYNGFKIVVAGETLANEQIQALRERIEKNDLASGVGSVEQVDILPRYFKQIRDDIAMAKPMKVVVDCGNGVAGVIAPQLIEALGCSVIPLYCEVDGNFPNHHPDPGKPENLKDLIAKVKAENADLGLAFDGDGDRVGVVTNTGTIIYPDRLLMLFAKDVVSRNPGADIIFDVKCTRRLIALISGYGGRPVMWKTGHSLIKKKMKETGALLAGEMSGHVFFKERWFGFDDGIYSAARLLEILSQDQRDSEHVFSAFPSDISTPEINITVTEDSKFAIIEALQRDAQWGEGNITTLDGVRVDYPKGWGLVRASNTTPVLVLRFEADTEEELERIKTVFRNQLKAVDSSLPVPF
Structure (SMILES),Kd (PMM/PGM [1]),Kd (PMM/PGM [2])
"O=P(O)(O)O[C@H]1O[C@H](CO)[C@@H](O)[C@H](O)[C@H]1O [G1P, glucose 1-phosphate]",198 ± 48 µM,
"O=P(O)(O)OC[C@H]1OC(O)[C@H](O)[C@@H](O)[C@@H]1O (stereo partly shown) [G6P, glucose 6-phosphate]",,20 ± 7 µM
"O=P(O)(O)OC[C@H]1O[C@H](OP(=O)(O)O)[C@H](O)[C@@H](O)[C@@H]1O [G16P, glucose 1,6-bisphosphate]",839 ± 221 µM,
"O=P(O)(O)O[C@H]1OC[C@@H](O)[C@H](O)[C@H]1O [X1P, xylose 1-phosphate]",11 ± 9 µM,

# Source: publication PMC5509744 (Scientific Reports, 2017)
